Experimental data published in PubChem BioAssay (NCI).
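Method: 48-hour compound exposure of cells in 96-well plates, five concentrations, linear interpolation of endpoints. GI50 is the concentration that inhibits growth by half. Definition used: TGI = concentration required for complete inhibition of growth.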

Experiments:
Assay in all cases: NCI anticancer screen, dose series, 48 h
[1] = tested on: SK-MEL-2 melanoma
[2] = tested on: M14 melanoma
[3] = tested on: SN12C renal
[4] = tested on: MCF7 breast
[5] = tested on: CAKI-1 renal
[6] = tested on: SF-539 CNS
[7] = tested on: HT29 colon

| Compound | GI50 [1] [µM] | TGI [1] [µM] | GI50 [2] [µM] | TGI [2] [µM] | GI50 [3] [µM] | TGI [3] [µM] | GI50 [4] [µM] | TGI [4] [µM] | GI50 [5] [µM] | TGI [5] [µM] | GI50 [6] [µM] | TGI [6] [µM] | GI50 [7] [µM] | TGI [7] [µM] |
| --- | --- | --- | --- | --- | --- | --- | --- | --- | --- | --- | --- | --- | --- | --- |
| CN1CCN(c2ccc(NC3=CC(=O)c4ncncc4C3=O)cc2)CC1 | 1.54 | 3.45 | 0.276 | 0.744 | 0.326 | 0.969 | 0.186 | 0.405 | 1.34 | 2.68 | 0.612 | 1.69 | 1.72 | 5.98 |
| Cc1cc(N(CCNc2ccnc3cc(Cl)ccc23)Cc2ccc3c(c2)OCO3)nc(N2CCCC2)n1 | 1.82 | 3.62 | 1.83 | 3.71 | 1.5 | 3.87 | 1.49 | 4.19 |  |  | 1.6 | 3.09 | 0.706 | 3.66 |
| COC(=O)CC1=C(C)/C(=C/c2[nH]c(-c3ccc[nH]3)cc2OC)N=C1C | 0.149 | 0.354 | 0.272 | 0.863 | 0.458 | 9.19 | 0.0828 | 0.733 | 0.231 | 2.34 | 0.331 | 2.27 | 0.0375 | 1.19 |
| CN(C)c1ccc2[nH]c3c(C(N)=O)cc(=O)c(=O)c=3oc2c1 | 1.87 | 5.34 | 2.93 | > 100 | 1.95 | 7.23 | 1.64 | 8.64 | 3.48 | > 100 | 0.428 | 4.43 | 3.66 | > 100 |
| CCC(c1ccccc1)c1cc(C(C)(C)C)cc(C(C)(C)C)c1O (centres undefined) |  | 29 |  | 33.9 |  | 31.3 |  | 35.7 |  | 29.8 |  | 34.2 |  | 28 |
| CSc1nc2c(c(=O)n1C)C(c1ccccc1)C1=C(N2)/C(=C/c2ccccc2)CCC1 (centres undefined) | 9.48 | 42.6 | 6.56 | > 100 | 53 | > 100 | 7.72 | > 100 | 69 | > 100 | 9.98 | 81.5 | 3.58 | 71 |
| C(=N\Nc1ccc2ccccc2n1)/c1ccccn1 | 0.511 | > 100 | 0.565 | 3.45 | 0.483 | > 100 | 0.44 | > 100 | 0.257 | 0.763 | 0.362 | 6.83 | 0.536 | > 40.6 |
| CC/C=C\C[C@H]1C/C=C2/C(=O)C(Cl)=C[C@@H]2C/C=C\CCCC(=O)O1 | 0.453 | 1.13 | 0.681 | 3.08 | 0.575 | 2.57 | 0.0836 | 2.61 | 0.45 | 1.51 | 0.523 | 1.41 | 0.325 | 0.79 |
| COc1ccc(-c2[nH]ncc2Nc2cc(OC)c(OC)c(OC)c2)cc1 | 10.3 | > 100 | 0.906 | > 100 | 7.18 | > 100 | 0.736 | > 100 | 5.64 | > 100 |  |  | 0.482 | > 100 |
| O=C(CI)Nc1ccc(Br)cc1 | 2.9 | 8.03 | 1.92 | 3.85 |  |  | 1.91 | 3.95 | 1.69 | 3.51 | 1.81 | 3.67 | 2.43 | 5.28 |
| N=C(CC(=O)Nc1ccccn1)c1ccccc1 |  | > 100 |  | > 100 |  | > 100 |  | > 100 |  | > 100 |  | > 100 |  | > 100 |
| O=C1NC(=NCCc2ccc(Br)cc2)S/C1=C\c1ccc2ncccc2c1 | 21.6 | > 25 | > 25 | > 25 | > 25 | > 25 | 22.1 | > 25 | > 20.3 | > 25 | 14.5 | > 25 | > 25 | > 25 |
| N#CC1=C(N)OC2=C(CCOc3c2ccc2ccccc32)C1c1ccc(Br)cc1 (centres undefined) |  |  | 26.9 | > 100 | 21.6 | 47 | 20.9 | 94.2 | 15.1 | 80.6 | > 100 | > 100 | 36.7 | > 100 |
| O=C1/C(=C/c2ccc(C(F)(F)F)cc2)COc2ccc(O)c(O)c21 | 1.83 | 3.99 | 1.78 | 4.04 | 1.15 | 2.5 |  |  | 1.11 | 2.38 | 1.14 | 2.46 |  |  |
| CCS(=O)(=O)c1ccc(OC)c(Nc2ncc(-c3cccc(F)c3)o2)c1 | > 25 | > 25 | > 25 | > 25 | > 25 | > 25 | > 25 | > 25 | > 25 | > 25 | > 25 | > 25 | > 25 | > 25 |
| CN(CCCCCl)P(=O)(OCc1ccc([N+](=O)[O-])o1)OCC1OC(n2cc([N+](=O)[O-])c(=O)[nH]c2=O)CC1O (centres undefined) | > 100 | > 100 | 31.3 | > 100 | 51.9 | > 100 | 22.8 | > 100 | 48.5 | > 100 | 4.51 | > 100 | > 100 | > 100 |
| CCC(=O)Nc1nnc(Cc2ccc(OC)c(OC)c2)s1 | > 100 | > 100 | > 100 | > 100 | > 100 | > 100 | > 100 | > 100 | > 100 | > 100 | > 100 | > 100 | > 100 | > 100 |
| C=CCSC(C)=O |  | > 100 |  | > 100 |  | > 100 |  | > 100 |  | > 100 |  | > 100 |  | > 100 |
